Literature values as cited in publication PMC8067797, “An In Vivo Predictive Dissolution Methodology (iPD Methodology) with a BCS Class IIb Drug Can Predict the In Vivo Bioequivalence Results: Etoricoxib Products” (Pharmaceutics, 2021).
Values after ≈ are worked out from the molar mass of the structure shown. Values joined by “and” are separate entries in the source; they are usually repeats but may differ in a detail not shown here. Identical values can stand only once. Like-named read-outs stand apart in the source and are kept apart here.

Tests used:
[1] = design: method as in Schwartz et al. [23]; conditions: ref Schwartz et al. [23]
Caco-2 = conditions: used for plasma simulations; ref [6]
[2] = design: method as in Okumu et al. [7]; conditions: ref Okumu et al. [7]
[3] = not given; remark: listed apart in the source
[4] = not given; remark: listed apart in the source
[5] = curve fitting of literature data, ref [6]

For `Cc1ccc(-c2ncc(Cl)cc2-c2ccc(S(C)(=O)=O)cc2)cn1` [ETO, Etoricoxib], which “reduction of plasma Cmax” value ([1]; with calcium carbonate) is on record?
Its value is 23%.

What about the “reduction of plasma Cmax” value ([1]; with magnesium and aluminum hydroxide) of the same molecule?
Its value is 15%.

What about the “Effective Permeability Small Intestine—Peff” value (Caco-2) of the same molecule?
The value was 1.71 cm/h.

What about the “Central compartment volume—Vc” value (average value, curve fitting of literature data, ref [6],[9],[21]) of the same molecule?
Its value is 27.40 L.

And the “Distribution rate constant from central to peripheral compartment—k12” value [5]?
Its value is 0.6180 h⁻¹.

And the “Distribution rate constant from peripheral to central compartment—k21” value [5]?
Its value is 0.2820 h⁻¹.

What about the “Elimination rate constant from central compartment—ke” value [5] of the same molecule?
The value was 0.0899 h⁻¹.

And the Pharmacokinetics dose linearity (dose range 30–240 mg, ref [8])?
The Pharmacokinetics dose linearity was “linear”.

And the oral bioavailability (oral dosing, ref [8])?
Its oral bioavailability is “up to 100%”.

And the Oral absolute bioavailability (ref [9])?
The Oral absolute bioavailability was 83%.

What about the Oral absolute bioavailability (ref [10]) of the same molecule?
Its Oral absolute bioavailability is “practically complete”.

What about the “precipitation in transfer system” value [2] of the same molecule?
The value was “did not observe precipitation”.

What about the “supersaturation ratio (dissolved concentration / equilibrium solubility)” value ([2]; transfer system) of the same molecule?
Its value is “below 3”.

And the “Cs, solubility” value ([3]; pH 4.5, ref [7])?
The value was 0.44 mg/mL.

And the “solubility in FaSSIF or simulated intestinal fluids (SIF phosphate buffer)” value ([3]; pH 6.8, ref [7])?
Its value is 0.14 mg/mL (≈ 0.39 mM).

And the “solubility in the stomach” value ([3]; ref Mitra el al. [6])?
The value was 25 mg/mL (≈ 69.7 mM).

What about the BCS classification ([4]; low solubility pH 4–7, high permeability) of the same molecule?
Its BCS classification is “BCS class II”.

And the logP ([4]; ref [14])?
Its logP is 2.79 and 2.794.

What about the pKa ([4]; weak base, ref [6],[7]) of the same molecule?
The pKa was 4.96.
